In PubChem BioAssay AID179 (DTP/NCI, 2004):
Activity calls are given as the source filed them.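 How the source made its calls: active means compounds giving half or more protection of infected cells from virus-caused growth loss, again on retest; inactive means the rest.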 Where a SMILES comes first, the peptide text is derived from it. [ ]: non-standard residue; d: D form. The star is where a group is joined. AllylGly = C=CC[CH](N)C(=O)O; Cbz = O=C(OCc1ccccc1)*; Boc = CC(C)(C)OC(=O)*; OtBu = CC(C)(C)O*

Test system: CEM cells HIV-1 protection, formazan growth assay
Assay: NCI AIDS Antiviral Assay
Details: for IC50: measured here: growth of uninfected CEM cells
How it was run: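 Human CEM cells, uninfected and HIV-1-infected, exposed to five drug concentrations; growth measured by soluble formazan assay and scored as percent protection from infection, with protecting compounds retested.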

Compound	EC50	IC50	outcome
COc1cc([N+](=O)[O-])c(OC)c2c(Nc3ccc(S(=O)(=O)O)c4cc(S(=O)(=O)O)cc(S(=O)(=O)O)c34)cc(C)nc12	> 200 µM	> 200 µM	–
O=c1[nH]c2c(nc1NC13CC4CC(CC(C4)C1)C3)c(=O)oc1ccccc12	> 2 µM	> 2 µM	–
CC[C@@H](C)[C@H]([C@H](CC(=O)N1CCC[C@@H]1[C@@H](OC)[C@H](C)C(=O)N[C@H](Cc1ccccc1)c1nccs1)OC)N(C)C(=O)[C@H](NC(=O)[C@@H](C(C)C)N(C)C)C(C)C	> 316 µM	0.1 µM	–
O=C(OC(C(=O)O)C(OC(=O)c1ccccc1)C(=O)O)c1ccccc1 (stereo not given) (tested in a mixture with another compound)	> 380 µM	0.912 µM	–
CC1CC(=O)Nc2cc(Cl)ccc2N1C(=O)C1CC1 (stereo not given)	> 200 µM	> 200 µM	–
CCCc1cc(=O)[nH]c(SCC(=O)O)n1	> 200 µM	> 200 µM	–
CC[C@@H]1C2CC3C4N(C)c5ccccc5[C@]45C[C@@H](C2C5O)N3C1O (stereo not given in full)	–	–	inactive
COC12C=CC(CC1)C(C)(C)C2O (stereo not given)	> 200 µM	> 200 µM	inactive
[Co].[NH-]CC[NH-].[NH-]CC[NH-].[NH-]CC[NH-]	> 200 µM	> 200 µM	–
CCOP(=O)(OCC)C(Cc1c[nH]c2ccccc12)C(=O)O (stereo not given)	> 200 µM	> 200 µM	–
O=C1OC(Cl)C(N=P(c2ccccc2)(c2ccccc2)c2ccccc2)=C1Cl (stereo not given)	> 12.3 µM	9.33 µM	–
CC(=O)O[C@H]1CCC2[C@@H]3CCC4Nc5c(cnn5-c5ccccc5)C[C@]4(C)C3CC[C@@]21C (stereo not given in full)	–	–	inactive
COC(=O)C12CCC(C)(C)CC1C1=CCC3C4(C)CC(O)C(O)C(C)(C(=O)OC)C4CCC3(C)C1(CO)CC2 (stereo not given)	–	–	inactive
Cc1ccc(-c2cc(=S)ss2)cc1	> 200 µM	166 µM	–
CCOc1ccccc1N=NC1C(=O)N(C(=O)CC(=O)Nc2ccccc2Cl)N=C1C (stereo not given)	> 200 µM	> 200 µM	–
O=C(/C=C/c1ccccc1Cl)c1ccccc1Cl	> 7.24 µM	> 7.24 µM	–
Cc1cc(=O)[nH]c(CNC(=O)c2cccc3ccccc23)n1	> 851 µM	> 851 µM	–
O=S1(=O)CCC2=CC(C(F)(F)F)=CC(C(F)(F)F)=CN21	> 81.3 µM	0.38 µM	–
C#CCN1CCC2=C(C1)c1c(O)cc(C(C)C(C)CCCCC)cc1OC2(C)C (stereo not given)	> 32.4 µM	14.8 µM	–
C=C(C)C1CC2=C(O1)C(=O)c1ccccc1C2=O (stereo not given)	> 200 µM	2 µM	–
O=[N+]([O-])c1ccc([As](=O)(O)O)cc1	> 200 µM	> 200 µM	–
CN1C(=O)N(C)C(=O)C(Nc2ccc([N+](=O)[O-])cc2)(SCCO)C1=O	97.7 µM	363 µM	–

Compound	EC50	IC50	outcome
O=CC(=O)C(C(=O)O)[N+](=O)[O-] (stereo not given)	> 200 µM	> 200 µM	–
O=C1C=C(Nc2ccc(Cl)cc2C(=O)c2ccccc2)c2ccccc2C1=O	> 174 µM	> 174 µM	–
COC(=O)C1Cc2cc3c(cc2C1=O)CCC3 (stereo not given)	> 200 µM	135 µM	–
COC1OC(CO)C(N=C(C)C)C1O (stereo not given)	> 200 µM	> 200 µM	–
O=c1oc2ccccc2nc1/C=C(\O)c1ccc(Cl)cc1	> 200 µM	64.6 µM	–
c1ccc2c(c1)[nH]c1scc[n+]12	–	–	inactive
C=CCC(NC(=O)C(CC(=O)OC(C)(C)C)NC(=O)OC(C)(C)C)C(=O)OC (stereo not given) (Boc-Asp(OtBu)-[AllylGly]-OMe; configuration not given here)	> 200 µM	97.7 µM	–
S=C1N(c2ccc(Br)cc2)C2=Nc3ccccc3SC(=C2N=Nc2ccc(Br)cc2)N1c1ccc(Cl)cc1	> 32.4 µM	6.17 µM	–
CC[C@@]1(OC(=O)CN(C)C)C(=O)OCc2c1cc1n(c2=O)Cc2cc3ccccc3nc2-1	> 10 µM	0.0229 µM	–
[N-]=[N+]=CC(=O)C1(C(=O)C=[N+]=[N-])CC1	> 251 µM	240 µM	–
NC(N)=NC(N)=Nc1ccc(Sc2ccc(N=C(N)N=C(N)N)cc2)cc1	> 200 µM	–	–
CC1CC(Nc2ccc(Br)cc2)N(C(=O)c2ccc(Br)cc2)O1 (stereo not given)	> 200 µM	17 µM	–
Oc1ccc(Cc2nc3ccccc3[nH]2)cc1	> 200 µM	> 200 µM	–
Cc1ccc(S(=O)(=O)Sc2ccccc2)cc1	> 135 µM	21.9 µM	–
COC(=O)c1nc(N)[nH]c(=O)c1-c1ccc(Cl)cc1	251 µM	891 µM	–
O=C1C(Cl)=CC(=C2C=C(Cl)C(=O)C(Cl)=C2)C=C1Cl	> 200 µM	42.7 µM	–
OCCC(Sc1ccccc1)Sc1ccccc1	–	–	inactive
CN(C)C1C(=O)C(C(=O)NCNCCCO)=C(O)C2(O)C(=O)C3=C(O)c4c(O)cccc4C(C)(O)C3CC12 (stereo not given)	> 204 µM	> 100 µM	–
CN1C(=O)CN2C(Cl)(Cl)C2(c2ccccc2)c2cc(Cl)ccc21 (stereo not given)	> 200 µM	120 µM	–
CC1CN=C(Nc2ccc(S(N)(=O)=O)cc2)S1 (stereo not given)	> 200 µM	178 µM	–
CN(C)Cc1cc(C(=O)/C=C/c2ccc(Cl)cc2)cc(CN(C)C)c1O	> 200 µM	9.12 µM	–
Cc1ccc2ccc(=O)oc2c1	> 309 µM	> 309 µM	–

Compound	EC50	IC50	outcome
CSC1=C(C(=O)N(COCC[Si](C)(C)C)c2ccccc2Br)CCC(C(C)(C)C)C1 (stereo not given)	> 200 µM	17.8 µM	–
Nc1nc[n+](Cc2ccccc2)c2ncn(Cc3ccccc3)c12	> 631 µM	95.5 µM	–
CCn1c(O)c(C=Nc2ccccc2)s/c1=N/Nc1nc(-c2ccc([N+](=O)[O-])cc2)cs1	> 200 µM	14.5 µM	–
C(=C/P(c1ccccc1)c1ccccc1)/P(c1ccccc1)c1ccccc1.C(=CP(c1ccccc1)c1ccccc1)P(c1ccccc1)c1ccccc1.[Pt]	> 3.63 µM	2.63 µM	–
Nc1ccc2nc3ccc(O)cc3nc2c1	> 200 µM	17 µM	–
COc1cc(O)c(/C=N/N=C(\N)NO)c(OC)c1	> 200 µM	44.7 µM	–
COC(=O)c1cc(C(=O)OC)c(C/C(=N/NC(N)=S)C(=O)Nc2ccc(Cl)c(Cl)c2)nc1C/C(=N/NC(N)=S)C(=O)Nc1ccc(Cl)c(Cl)c1	> 200 µM	> 200 µM	–
Fc1ccc(N=NN2CCCC2)cc1	> 200 µM	123 µM	–
O=[N+]([O-])c1ccccc1C=NC12CC3CC(CC(C3)C1)C2	> 115 µM	> 115 µM	–
S=C1NC(c2ccccc2)Nc2ccccc21 (stereo not given)	> 107 µM	> 107 µM	–
Cc1cnc(SCCN(C)C)nc1-c1ccc(-c2nc(SCCN(C)C)ncc2C)s1	> 13.5 µM	12.6 µM	–
CCOC(=O)C(CC(CO)(C(C)=O)C(=O)OCC)C(C)=O (stereo not given)	> 200 µM	22.4 µM	–
C[N+](C)(CCCCCC[N+](C)(C)CC(=O)O)CC(=O)O	> 550 µM	> 550 µM	–
CCOc1cc2cnc3c4cc(OC)c(OC)cc4ccc3c2cc1OC	> 70.8 µM	34.7 µM	–
CC1(C)O[C@@H]2COC(=O)[C@@H]2O1	> 200 µM	> 200 µM	–
O=C(NNC(=S)NC1CCCCC1)C12CC3CC(CC(C3)C1)C2	> 200 µM	> 200 µM	–
Cc1cc(O)c(C=NC(=S)c2ccccc2)c(=O)o1	> 200 µM	> 200 µM	–
O=C1C[C@@H]2[C@@H](CCC23CCCC3)N1	–	–	inactive
Cn1c([C@H](C#N)C(=O)c2cc(O)ccc2[N+](=O)[O-])nc2ccccc21	> 200 µM	> 200 µM	–
Cc1cc(Cl)c(O)c(-c2cc(-c3ccccc3O)c(C#N)c(N)n2)c1	> 200 µM	2.14 µM	–
Cc1[nH]nc2c1NC(=O)OC2C (stereo not given)	> 1480 µM	1200 µM	–
CCOC(=O)c1c2ccc(/C=C/C(=O)OC)ccc-2c(C(=O)OCC)c1N	> 19.5 µM	> 19.5 µM	–

Compound	EC50	IC50	outcome
Cc1cc(-c2cccc3ccccc23)c(C#N)c(=S)n1C1OC(CO)C(O)C(O)C1O (stereo not given)	> 200 µM	66.1 µM	–
O=C(NC(=S)Nc1ccccn1)c1ccccc1	> 200 µM	135 µM	–
O=C(/C(=N/Nc1ccccc1)c1ccc([N+](=O)[O-])cc1)c1ccc([N+](=O)[O-])cc1	–	–	inactive
NC(CSS(=O)(=O)O)=NCCSc1ccc(Cl)cc1	> 200 µM	60.3 µM	–
N#CNC(=NCc1ccccc1)N(Cc1ccccc1)Cc1ccccc1	> 14.8 µM	> 14.8 µM	–
COc1cc(C(=O)O)c(C(=O)c2ccc([N+](=O)[O-])cc2)cc1OC	> 200 µM	> 200 µM	–
O=c1[nH]nc(Cc2ccccc2)n1Nc1ccccc1	> 200 µM	> 200 µM	–
CCOC(=O)C(=O)NCCCN1CCOCC1	> 1020 µM	> 1020 µM	–
CCOC(=O)c1cc(NC(=O)c2ccccc2)c(=O)n2c(cc3c(Cl)cccc32)c1O	> 200 µM	> 200 µM	–
N#Cc1ccc(OCc2ccc3nc(-c4ccccc4)c(Cl)nc3c2)cc1	> 100 µM	> 100 µM	–
O=C(O)c1ccccc1Sc1ccc(C=C2NC(=S)N(c3ccccc3)C2=O)s1	> 200 µM	97.7 µM	–
CN/N=C(/CC(=O)c1sc(NNC(C)=O)nc1C)C(=O)Nc1ccc(OC)cc1OC	> 79.4 µM	> 79.4 µM	–
Cc1ccc(-n2nnc3c(NNc4ccccc4)n[nH]c(=O)c32)cc1	> 200 µM	25.7 µM	–
CC(C)=CC(=O)N(C)C1C2CN3CCC(O2)C13 (stereo not given)	–	–	inactive
CCCC1OC(CCC)C2CCCOC2O1 (stereo not given)	> 200 µM	> 200 µM	–
O=C(CC(=O)Nc1cccc(C(=O)O)c1)Nc1cccc(C(=O)O)c1	> 200 µM	> 200 µM	–
COc1nc(N=P(c2ccccc2)(c2ccccc2)c2ccccc2)cc(=O)n1C	–	–	inactive
CCOC(=O)CCC(NC(=O)C(CC(=O)OC)NC(=O)OCc1ccccc1)C(=O)NC(CC(=O)OC)C(=O)NC(CCC(=O)OCC)C(=O)NC(CC(=O)OC)C(=O)NC(CCC(=O)OCC)C(=O)NC(CC(=O)OCC)C(=O)OCC (stereo not given) (Cbz-D(OMe)E(OEt)D(OMe)E(OEt)D(OMe)E(OEt)D(OEt)-OEt; configuration not given here)	> 200 µM	> 200 µM	–
[O-]c1c(-c2cccc3ccccc23)sc(-c2cccc3ccccc23)[n+]1-c1ccccc1	–	–	inactive
